Reference: US20040072753A1, “Peptides for use in the treatment of alzheimer's disease” (priority 2000, published 2004)
Where a SMILES comes first, the peptide text is derived from it.

Legend:
biotinylated Aβ 1-42 = biotinylated Aβ 1-42 (Homo sapiens, UniProt P05067); test: Binding of biotinylated Aβ 1-42 to CAβBP or EAβBP coated plates (ELISA, Scatchard); settings: biotinylated peptide 200 pM
Procedure: After washing to remove unbound material, an alkaline phosphatase polymer-streptavidin conjugate (Sigma, Dorset, UK) was added and incubated at 37° C. for 2 hours. After washing to remove unbound material, p-nitrophenylphosphate substrate was added and absorbance at 405 nm determined.

biotinylated Aβ 12-28 = biotinylated Aβ 12-28 (Homo sapiens, UniProt P05067); test: Binding of biotinylated Aβ 12-28 to CAβBP or EAβBP coated plates (ELISA); settings: biotinylated peptide 200 pM
Procedure: Biotinylated Aβ1-42, Aβ12-28 and Aβ 25-35 (from SEQ ID NO. 2) were prepared using a LinKit-Biolink kit (ISL, Paignton, UK). ELISA plates were coated with CAβBP (catalase residues 400409) or EAβBD (ERAB residues 99-108) (1 μg ml^−1) in carbonate buffer and unoccupied sites blocked with 5% (w/v) dried milk. Biotinylated peptides (200 pM) were incubated alone, with control peptides or with unlabelled Aβ peptides in PBS (containing 0.1% BSA and 0.05% Tween-20) at 37° C. for 4 hours. After washing to remove unbound material, an alkaline phosphatase polymer-streptavidin conjugate (Sigma, Dorset, UK) was added and incubated at 37° C. for 2 hours. After washing to remove unbound material, p-nitrophenylphosphate substrate was added and absorbance at 405 nm determined. Affinity constants were determined by incubating catalase or CAβBP coated plates with biotinylated peptides (200 pM) plus Aβ peptides over a range of concentrations (0-100 nM) and detection of bound peptides was carried out by ELISA.

[1] = target: T1, catalase EC 1.11.1.6 from human erythrocytes (Homo sapiens, UniProt P04040); test: Catalase enzyme activity, inhibition by Aβ peptides; assay type: biochemical; settings: test peptides 2 μM
T1 construct: catalase EC 1.11.1.6 from human erythrocytes (Sigma, Dorset, UK) was used; purchased Sigma, Dorset, UK; host or cells: human erythrocytes
T1 sequence (P04040 2-527 limits assumed): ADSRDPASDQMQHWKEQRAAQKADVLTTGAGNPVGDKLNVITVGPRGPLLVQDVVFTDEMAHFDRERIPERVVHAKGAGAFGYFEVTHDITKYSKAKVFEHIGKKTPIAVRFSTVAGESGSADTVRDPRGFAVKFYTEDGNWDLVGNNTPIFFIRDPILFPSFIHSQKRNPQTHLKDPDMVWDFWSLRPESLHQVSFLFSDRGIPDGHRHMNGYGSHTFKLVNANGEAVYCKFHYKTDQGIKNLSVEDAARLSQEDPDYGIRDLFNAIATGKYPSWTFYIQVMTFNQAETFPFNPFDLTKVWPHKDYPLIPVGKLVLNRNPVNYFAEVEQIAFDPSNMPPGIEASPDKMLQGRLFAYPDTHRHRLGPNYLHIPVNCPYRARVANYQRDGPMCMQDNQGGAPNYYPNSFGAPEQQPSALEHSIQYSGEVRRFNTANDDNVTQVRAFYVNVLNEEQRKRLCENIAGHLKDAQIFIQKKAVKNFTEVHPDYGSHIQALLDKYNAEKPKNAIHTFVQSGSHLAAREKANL
Procedure: For catalase activity catalase EC 1.11.1.6 from human erythrocytes (Sigma, Dorset, UK) was used for all incubation experiments. Activity of Catalase (5kU I^−1) incubated with test peptides (2 μM) was determined after incubation in 60 mM sodium-potassium phosphate buffer at 37° C. in a total volume of 100 μl. After incubation catalase activity was determined by mixing 50 μl sample with 50 μl substrate (6.5 μmol H2O2 in phosphate buffer) for 60 secs, adding 100 μl of 32.4 mM ammonium molybdate and measurement of absorbance change at 405 nm. Catalase activity was calculated from a standard curve (0-10OkU I^−1) using purified human catalase of known activity (Milton, Biochem. J. 344: 293-296 (1999)).

[2] = tested on: SP2/0-Ag-14 mouse myeloma cells; test: Cytotoxicity of Aβ peptides, trypan blue dye exclusion; assay type: cell-based; settings: test peptides 20 μM, 24 hours
Procedure: SP2/0-Ag-14 mouse myeloma cells were maintained in RPMI 1640 medium containing 10% fetal calf serum at 37° C. in a 5% CO2 humidified atmosphere. For cytotoxicity experiments 2×1 05 cells were plated in 24 well dishes in 1 ml PBS containing 0.1% BSA and test peptides (20 μM) for 24 hours. Cell viability was determined by trypan blue dye exclusion with at least 100 cells counted per well (Milton, Biochem. J. 344: 293-296 (1999)).

[3] = target: T2, recombinant p34-cdc2/cyclin B1 (Homo sapiens, UniProt P06493); test: Phosphorylation of biotinylated Aβ peptides by recombinant p34-cdc2/cyclin B1 (32P incorporation); assay type: biochemical; settings: 25 μM biotinylated peptide, 10 min at 30° C.
T2 construct: purchased Promega, UK
T2 sequence (P06493 whole entry): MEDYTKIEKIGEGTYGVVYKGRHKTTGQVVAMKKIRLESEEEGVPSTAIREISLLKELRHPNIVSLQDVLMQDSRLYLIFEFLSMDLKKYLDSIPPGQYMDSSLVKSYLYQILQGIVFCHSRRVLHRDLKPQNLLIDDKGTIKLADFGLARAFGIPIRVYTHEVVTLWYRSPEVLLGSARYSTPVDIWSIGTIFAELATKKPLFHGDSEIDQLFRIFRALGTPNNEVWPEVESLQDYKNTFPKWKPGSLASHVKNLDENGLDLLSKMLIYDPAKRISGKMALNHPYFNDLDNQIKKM
T2 sequence (P14635 whole entry partner): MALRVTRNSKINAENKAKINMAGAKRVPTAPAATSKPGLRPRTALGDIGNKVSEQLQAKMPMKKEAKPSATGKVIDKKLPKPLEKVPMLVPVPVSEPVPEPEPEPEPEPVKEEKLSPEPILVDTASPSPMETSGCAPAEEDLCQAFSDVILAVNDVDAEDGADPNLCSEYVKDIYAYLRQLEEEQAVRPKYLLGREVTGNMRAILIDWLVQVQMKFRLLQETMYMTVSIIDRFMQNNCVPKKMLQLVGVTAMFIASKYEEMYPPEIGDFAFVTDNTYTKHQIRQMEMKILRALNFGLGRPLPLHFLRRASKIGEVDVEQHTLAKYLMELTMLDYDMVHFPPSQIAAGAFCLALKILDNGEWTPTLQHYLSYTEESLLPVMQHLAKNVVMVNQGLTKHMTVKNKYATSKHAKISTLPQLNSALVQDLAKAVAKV
Description: (§1) The membrane was washed four times in 2 M NaCl, followed by four times in 2 M NaCl containing 1% (v/v) H3PO4 and finally twice in deionized H2O to remove unbound material.

recombinant human cdc2 = recombinant human cdc2 (Homo sapiens, UniProt P06493); test: Binding of biotinylated Aβ peptides to recombinant human cdc2 coated plates (ELISA); settings: biotinylated peptide 200 pM, 37° C. 4 hours
Chain of recombinant human cdc2 (P06493 whole entry): as the sequence (P06493 whole entry) above
Procedure: (§2) After washing to remove unbound material, an alkaline phosphatase polymer-streptavidin conjugate (Sigma, Dorset, UK) was added and incubated at 37° C. for 2 hours.

cdc2/cyclin B1 = target: T3, cdc2/cyclin B1 (Homo sapiens, UniProt P06493+P14635); test: cdc2/cyclin B1 phosphorylation of biotinylated histone H1 substrate peptide; assay type: biochemical
T3 construct: purchased Promega, UK
T3 sequence (P06493 whole entry): as above
T3 sequence (P14635 whole entry): as the sequence (P14635 whole entry partner) above
Description: as §1
Since Aβ binds to both the cdc2 and cyclin B1 components of the active enzyme it is possible that Aβ modulates the activity of the kinase.

[4] = target: recombinant human cyclin B1 (Homo sapiens, UniProt P14635); test: Binding of biotinylated Aβ peptides to cyclin B1 coated plates (ELISA); settings: biotinylated peptide
Chain of recombinant human cyclin B1 (P14635 whole entry): as the sequence (P14635 whole entry partner) above
Procedure: as §2
Cyclins are co-factors for cdc2 which are required for enzyme activity. These proteins also contain substrate recognition sequences which may play a role in the recruitment of substrate molecules to the active cdc2/cyclin complex. The recombinant cdc2/cyclin enzyme complex used in the above phosphorylation experiments contained cyclin B1. […] Binding assays as described above using cyclin B1 coated plates were carried out.

Chain of biotinylated Aβ 1-42 (P05067 672-713 limits assumed): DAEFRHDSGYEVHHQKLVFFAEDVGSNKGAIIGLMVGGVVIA

Compound | binding of biotinylated Aβ 1-42 (biotinylated Aβ 1-42) | binding of biotinylated Aβ 12-28 (biotinylated Aβ 12-28) | block of the inhibition of catalase enzyme activity by Aβ 1-42 [1] | block of the cytotoxicity of Aβ 1-42 [2] | block of the cytotoxicity of Aβ fragments containing residues 17-35 [2] | phosphorylation by cdc2 (incorporation of 32P from γ32P-ATP) [3] | binding to human cdc2 (recombinant human cdc2) | effect on phosphorylation of the H1 peptide by cdc2/cyclin B1 (cdc2/cyclin B1) | binding to cyclin B1 [4]
CC(C)C[C@H](NC(=O)[C@H](CC(N)=O)NC(=O)[C@H](Cc1ccc(O)cc1)NC(=O)[C@@H](NC(=O)[C@@H](N)CCCCN)[C@@H](C)O)C(=O)N[C@@H](CCCCN)C(=O)N[C@@H](CCCCN)C(=O)NCC(=O)N[C@@H](CCC(N)=O)C(=O)N[C@H](C(=O)O)[C@@H](C)O [EAβBP] (H-KTYNLKKGQT-OH; N-terminus and C-terminus assumed) | specifically bound | specifically bound | no effect | able to block | able to block | – | – | – | –
Aβ 25-35: functional neurotoxic domain fragment of Aβ (GSNKGAIIGLM) | – | – | – | – | – | incorporated | bound | increased | bound
